In one test the target is T1, CCL21 (Homo sapiens, UniProt O00585).
T1 construct: Our previous NMR studies defined the 3D structure of full-length CCL21; made in house
T1 sequence (O00585 24-134): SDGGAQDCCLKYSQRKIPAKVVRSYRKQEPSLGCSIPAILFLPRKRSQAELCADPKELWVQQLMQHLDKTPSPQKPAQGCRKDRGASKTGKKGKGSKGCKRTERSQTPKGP
Kind of test: 15N-1H HSQC NMR titration of U-15N CCL21 with CCR7 N-terminal peptides; Kd by nonlinear fitting of chemical shift perturbations. Type of test: binding. The note with it: for Kd: 100 μM U-15N CCL21 titrated with peptide, NMR buffer 25 mM deuterated MES, 10% D2O, 0.2% NaN3, pH 6.0, 25 °C, fit of all CCL21 residues with significant chemical shift perturbations (11–30 sY17: only residues that did not broaden beyond detection), ± CI at 95% confidence level; for Kd, CCL21 K69 only (representative residue): nonlinear fitting of combined amide chemical shift perturbations of CCL21 residue K69 versus peptide concentration, 100 μM U-15N CCL21, pH 6.0, 25 °C. As to the method:
NMR spectroscopic data were collected at the NMR facility at the Medical College of Wisconsin on a Bruker Avance 600 MHz spectrometer equipped with ^1H/^13C/^15N Cryoprobe® at 25 °C. Chemical shift assignments for CCR7 1–30 C24A (H, N, C, C^α, and most side chain carbons) were determined by standard techniques using 1.05 mM U-^15N/^13C labeled CCR7 1–30 C24A in NMR buffer (25 mM deuterated MES, 10% D2O, 0.2% NaN3, pH 6.0). To determine CCR7 N-terminal residues likely involved in CCL21 binding, 200 μM U-^15N/^13C CCR7 1–30 C24A in NMR buffer was monitored using ^15N-^1H HSQC spectra while titrating with increasing CCL21 concentrations (molar ratios of 1:0, 1:0.25, 1:0.5, 1:0.75, 1:1, 1:1.5, 1:2 and 1:2.5 of CCR7:CCL21).
To identify the impact of CCR7 tyrosine modification on CCL21 binding, 100 μM of U-^15N CCL21 in NMR buffer was titrated with increasing concentrations of the indicated CCR7 peptides and monitored using ^15N-^1H HSQC spectra, as previously described. […] Combined amide chemical shift perturbations (Δδ) were computed as [(5ΔδH)^2+(ΔδN)^2]^1/2, where ΔδH and ΔδN are the changes in backbone amide ^1H and ^15N chemical shifts in ppm, respectively. Dose-dependent changes in chemical shift perturbations upon titration with the various CCR7 peptides were used to determine dissociation constant (Kd) values through nonlinear fitting to an equation that takes into account ligand depletion, as previously described.

For another test, the target named is T2, CCR7 5–11 (Homo sapiens).
T2 chain: TDDYIGD-NH2
Description: NMR.

The target in a further test is T3, CCR7 5–11 sY8 (Homo sapiens, N-terminus assumed; SMILES CC[C@H](C)[C@H](NC(=O)[C@H](Cc1ccc(OS(=O)(=O)O)cc1)NC(=O)[C@H](CC(=O)O)NC(=O)[C@H](CC(=O)O)NC(=O)[C@@H](N)[C@@H](C)O)C(=O)NCC(=O)N[C@@H](CC(=O)O)C(N)=O).
T3 chain: TDD[sY]IGD-NH2
Kind of test: NMR.

Another test addresses T4, CCR7 5–11 pY8 (Homo sapiens, N-terminus assumed; SMILES CC[C@H](C)[C@H](NC(=O)[C@H](Cc1ccc(OP(=O)(O)O)cc1)NC(=O)[C@H](CC(=O)O)NC(=O)[C@H](CC(=O)O)NC(=O)[C@@H](N)[C@@H](C)O)C(=O)NCC(=O)N[C@@H](CC(=O)O)C(N)=O).
T4 chain: TDD[pY]IGD-NH2
Kind of test: NMR.

Non-standard residues stand in square brackets, D forms with d. Residues, ends and D or L forms follow the SMILES beside them. No end group written: not given here. sY = N[C@@H](Cc1ccc(OS(=O)(=O)O)cc1)C(=O)O; pY = N[C@@H](Cc1ccc(OP(=O)(O)O)cc1)C(=O)O

As usually defined, the Kd is the equilibrium constant for the complex coming apart. As to `CC[C@H](C)[C@H](NC(=O)[C@H](Cc1ccc(OP(=O)(O)O)cc1)NC(=O)[C@H](CC(=O)O)NC(=O)[C@H](CC(=O)O)NC(=O)[C@@H](N)[C@@H](C)O)C(=O)NCC(=O)N[C@@H](CC(=O)O)C(N)=O` [CCR7 5–11 pY8] (H-TDD[pY]IGD-NH2), on CCL21, the Kd stood at 240 ± 60 µM.

As for `CC[C@H](C)[C@H](NC(=O)[C@H](Cc1ccc(OS(=O)(=O)O)cc1)NC(=O)[C@H](CC(=O)O)NC(=O)[C@H](CC(=O)O)NC(=O)[C@@H](N)[C@@H](C)O)C(=O)NCC(=O)N[C@@H](CC(=O)O)C(N)=O` [CCR7 5–11 sY8] (H-TDD[sY]IGD-NH2), on CCL21, the Kd amounted to 140 ± 40 µM and the “Kd, CCL21 K69 only (representative residue)” value turned out to be 180 ± 40 µM.

`CC(C)C[C@H](NC(=O)[C@H](CO)NC(=O)[C@H](CCC(=O)O)NC(=O)[C@H](Cc1ccccc1)NC(=O)[C@H](CC(C)C)NC(=O)[C@@H](NC(=O)[C@H](Cc1ccc(OP(=O)(O)O)cc1)NC(=O)[C@H](CC(=O)O)NC(=O)[C@@H](NC(=O)[C@@H](NC(=O)[C@@H](NC(=O)[C@H](CC(N)=O)NC(=O)[C@@H](N)CC(=O)O)[C@@H](C)O)[C@@H](C)O)C(C)C)[C@@H](C)O)C(=O)N[C@@H](C)C(=O)N[C@@H](CO)C(=O)N[C@@H](CCCCN)C(=O)N[C@@H](CCCCN)C(=O)N[C@@H](CC(=O)O)C(=O)N[C@H](C(=O)N[C@@H](CCCNC(=N)N)C(N)=O)C(C)C` [CCR7 11–30 pY17] (H-DNTTVD[pY]TLFESLASKKDVR-NH2): the equilibrium dissociation constant (Kd) at CCL21 turned out to be 1700 µM.

Take `CC(C)C[C@H](NC(=O)[C@H](CO)NC(=O)[C@H](CCC(=O)O)NC(=O)[C@H](Cc1ccccc1)NC(=O)[C@H](CC(C)C)NC(=O)[C@@H](NC(=O)[C@H](Cc1ccc(OS(=O)(=O)O)cc1)NC(=O)[C@H](CC(=O)O)NC(=O)[C@@H](NC(=O)[C@@H](NC(=O)[C@@H](NC(=O)[C@H](CC(N)=O)NC(=O)[C@@H](N)CC(=O)O)[C@@H](C)O)[C@@H](C)O)C(C)C)[C@@H](C)O)C(=O)N[C@@H](C)C(=O)N[C@@H](CO)C(=O)N[C@@H](CCCCN)C(=O)N[C@@H](CCCCN)C(=O)N[C@@H](CC(=O)O)C(=O)N[C@H](C(=O)N[C@@H](CCCNC(=N)N)C(N)=O)C(C)C` [CCR7 11–30 sY17] (H-DNTTVD[sY]TLFESLASKKDVR-NH2): the Kd at CCL21 stood at 480 ± 70 µM.

As for DNTTVDYTLFESLASKKDVR-NH2 [CCR7 11–30], the Kd on CCL21 was 6800 µM.

Regarding TDDYIGD-NH2 [CCR7 5–11], on CCL21, the Kd was determined as 700 ± 300 µM and the “Kd, CCL21 K69 only (representative residue)” value came out at 530 ± 40 µM.

B1: CCL21 (protein)
chain: T1 sequence (O00585 24-134)
Take B1: the Kd in the test with CCR7 5–11 is 700 µM; with CCR7 5–11 sY8, 140 µM; with CCR7 5–11 pY8 it was 240 µM.
